The test system of one data set is NMDA receptors (NMDARs). Description: Whole-cell patch-clamp of NMDA-activated currents in primary cultures of cortical neurons. The class given is cell-based, rat. Here is the method:
All manipulations on animals were performed in accordance with the guide of the Federation for Laboratory Animal Science Associations and were approved by the Animal Care and Use Committees of Sechenov Institute. Briefly, 16 days pregnant Wistar rats (14 female rats used in this study, supplied by the Sechenov Institute Animal Facility) were placed in a plastic box connected to a CO2 tank by a tube and then sacrificed by 1 min CO2 inhalation. Fetuses were removed and then primary cultures of rat cortical neurons were prepared using conventional procedures as described earlier[27],[66]. Neurons were grown in Neurobasal culture medium supplemented with B-27 (Gibco-Invitrogen, UK) on glass coverslips coated with poly-D-lysine and were used for experiments after 10–15 days in culture[66],[67].
Whole-cell currents were recorded from cultured rat cortical neurons using a MultiClamp 700B patch-clamp amplifier with Digidata 1440 A controlled by pClamp v10.2 software (Molecular Devices). Recordings were 8-order low-pass filtered at 200 Hz and the acquisition rate was 20000 samples per second. Solution exchange was performed by means of a fast solution application system as described earlier. Unless otherwise specified, the external bathing solution contained (in mM): 140 NaCl; 2.8 KCl; 1.0 CaCl2; 10 HEPES, at pH 7.2–7.4, osmolarity 310 mOsm. The intrapipette solution contained (in mM): 120 CsF, 10 CsCl, 10 EGTA, and 10 HEPES, osmolarity 300 mOsm[14], with pH adjusted to 7.4 with CsOH. Patch pipettes of 2–4 MΩ were pulled from Sutter BF150-89-10 borosilicate capillaries. Experiments were performed at 23–25 °C. Under control conditions, neurons were voltage clamped at −70 mV. Data are reported without corrections for liquid junction potential, which was measured as −11 mV. To activate NMDARs, 100 µM NMDA and 30 µM glycine were co-applied. Some experiments were performed on neurons loaded with BAPTA. To load BAPTA, cortical neuron cultures were incubated in bathing solution containing 10 µM BAPTA-AM for 2 hours.
Whole-cell membrane currents activated by NMDA were measured at steady state. The fraction of blocked current was calculated as 1 − Ib/Ic, where Ic is the amplitude of current activated by agonists and Ib is the amplitude of current activated by agonists in the presence of blocker.
Amplitudes of currents measured in the presence of blocker were normalized to maximal current response in control (Ic). […]
The obtained values were fitted with the Woodhull equation[36]:6 IC50(Vm)=IC50(0mV)⋅exp(VmzδF/RT) where IC50(0 mV) and δ were set as free parameters. […] For Faraday constant, gas constant and room temperature of 25 °C the RT/F ≈ 25.7 mV.
The rise time of currents activated by the testing NMDA + Gly application in trapping channel block experiments was fit in ClampFit (pClamp, Axon Instruments) using the double exponential function:7 I=I1·exp(−t/τ1)+I2⋅exp(−t/τ2)−C where I1 and I2 are amplitudes of the exponential and τ1 and τ2 are time constants of the exponential and C equals I1 + I2 + Ib.

The next data set relates to NMDARs. As to conditions: cited from earlier work.
For data set [1] the following is noted: cited from earlier work.
The next data set deals with GluN1/GluN2A NMDARs. Also on record: method as in PMID 28877967. As to conditions: Ca2+-dependent manner; not GluN1/GluN2B receptors; cited from earlier work.

Molecules are shown by their SMILES. Entries after “also recorded” stand apart in the source; their conditions may differ. Where two headings read alike, the source gives them in different places.

For orientation: IC50 means the concentration needed to halve the response being measured. Take `CN(C)CCC=C1c2ccccc2CCc2ccccc21` [ATL, amitriptyline]: the “concentrations showing voltage-dependent open-channel block of NMDARs” value in the data set with NMDA receptors (NMDARs) is listed as above 70 µM. In the data set on NMDA receptors (NMDARs), the “decrease of IC50 per 1 mM increase of external [Ca2+]” value is “roughly 5 fold”. The “voltage dependence of block of NMDAR currents” value with NMDA receptors (NMDARs) (10 μM ATL, 1 mM Ca2+, −70 mV vs −30 mV) is given as “voltage dependence was not observed; also recorded: voltage-independent”; in the data set with NMDA receptors (NMDARs) (20 μM ATL, 2 mM Ca2+, −40 mV to +40 mV), “did not find any voltage dependence”; with NMDA receptors (NMDARs) (100 μM ATL, 1 mM Ca2+, −70 mV vs −30 mV), “depended on membrane voltage; also recorded: voltage-dependent”. Also, in the data set with NMDA receptors (NMDARs) (10 μM ATL, −70 mV, 2 mM vs 0.25 mM Ca2+), the “Ca2+ dependence of inhibition of NMDAR currents” value is “far more pronounced in 2 mM Ca^2+- than in 0.25 Ca^2+- containing media”. For the same molecule, the “effect on closed NMDARs (ATL applied prior to NMDA)” value with NMDA receptors (NMDARs) (100 μM ATL, 0.25 mM or 2 mM Ca2+, −70 mV) is reported as “did not significantly affect currents activated by NMDA”. Also, in the data set with NMDA receptors (NMDARs) (200 µM ATL, 0.25 mM Ca2+, −70 mV), the “type of open-channel block (trapping protocol)” value was “did not cause tail currents; also recorded: partial trapping”. Moreover, the “τs, slow rise time constant of test current (ATL unblock)” value is 11 ± 3.2 s in the data set with NMDA receptors (NMDARs) (200 µM ATL, washout delay 0.5 s, −70 mV, 0.25 mM Ca2+); 13 ± 5.7 s in the data set with NMDA receptors (NMDARs) (200 µM ATL, washout delay 1 s, −70 mV, 0.25 mM Ca2+); 13.2 ± 4.0 s with NMDA receptors (NMDARs) (200 µM ATL, washout delay 2 s, −70 mV, 0.25 mM Ca2+); 15 ± 2.9 s with NMDA receptors (NMDARs) (200 µM ATL, washout delay 4 s, −70 mV, 0.25 mM Ca2+). Moreover, in the data set with NMDA receptors (NMDARs) (0.25 mM Ca2+), the “voltage shift giving an e-fold change of IC50” value was 50 mV. In addition, the “δ, fraction of the membrane electric field (Woodhull model)” value in the data set with NMDA receptors (NMDARs) (0.25 mM Ca2+, Eq. 6) came out at 0.51. For the same molecule, the “fraction of ATL inhibition of NMDAR currents (1-Ib/Ic)” value with NMDA receptors (NMDARs) (ATL 10 μM, −30 mV, [Ca2+] 0.25 mM) is given as 0.12 ± 0.05; with NMDA receptors (NMDARs) (ATL 10 μM, −30 mV, [Ca2+] 2 mM), 0.30 ± 0.05; with NMDA receptors (NMDARs) (ATL 10 μM, −70 mV, [Ca2+] 0.25 mM), 0.13 ± 0.06; in the data set with NMDA receptors (NMDARs) (ATL 10 μM, −70 mV, [Ca2+] 2 mM), 0.42 ± 0.04; in the data set with NMDA receptors (NMDARs) (ATL 100 μM, −30 mV, [Ca2+] 0.25 mM) it was 0.40 ± 0.07; with NMDA receptors (NMDARs) (ATL 100 μM, −30 mV, [Ca2+] 2 mM), 0.35 ± 0.04. The “fraction of ATL inhibition of NMDAR currents (1-Ib/Ic)” value turned out to be 0.79 ± 0.05 with NMDA receptors (NMDARs) (ATL 100 μM, −70 mV, [Ca2+] 0.25 mM); 0.79 ± 0.03 with NMDA receptors (NMDARs) (ATL 100 μM, −70 mV, [Ca2+] 2 mM); 0.85 ± 0.06 in the data set with NMDA receptors (NMDARs) (co-application of agonists and 100 μM ATL, −70 mV, [Ca2+] 0.25 mM); 0.85 ± 0.05 in the data set on NMDA receptors (NMDARs) (co-application of agonists and 100 μM ATL, −70 mV, [Ca2+] 2 mM); 0.12 ± 0.01 in the data set with NMDA receptors (NMDARs) (pre-application of 100 μM ATL, −70 mV, [Ca2+] 0.25 mM); 0.17 ± 0.03 in the data set on NMDA receptors (NMDARs) (pre-application of 100 μM ATL, −70 mV, [Ca2+] 2 mM). Further, the IC50 with NMDA receptors (NMDARs) ([Ca2+] 2–4 mM, read-out: IC50 values at physiological extracellular [Ca2+]) was 0.7 to 7 µM; in the data set with NMDA receptors (NMDARs) (extrapolated to 0 mM Ca2+, −70 mV, read-out: IC50 at [Ca2+] = 0, single exponential approximation) it was 91 µM; in the data set on NMDA receptors (NMDARs) (extrapolated to 0 mV, 0.25 mM Ca2+, read-out: IC50 (0 mV), fit with Woodhull equation (Eq. 6)), 220 µM; in the data set on NMDA receptors (NMDARs) (read-out: IC50 for ATL inhibition of NMDAR currents, −30 mV, 0.25 mM Ca2+), 129 µM; with NMDA receptors (NMDARs) (read-out: IC50 for ATL inhibition of NMDAR currents, −70 mV, 0.25 mM Ca2+ in bathing solution, 100 μM NMDA + 30 μM Gly), 63 ± 9.3 µM; in the data set with NMDA receptors (NMDARs) (read-out: IC50 for ATL inhibition of NMDAR currents, −70 mV, 0.5 mM Ca2+, 100 μM NMDA + 30 μM Gly), 37.6 ± 7.7 µM. Further, the IC50 in the data set on NMDA receptors (NMDARs) (read-out: IC50 for ATL inhibition of NMDAR currents, −70 mV, 1 mM Ca2+, BAPTA-loaded neurons) came to 106 ± 9.5 µM; in the data set on NMDA receptors (NMDARs) (read-out: IC50 for ATL inhibition of NMDAR currents, −70 mV, 1 mM Ca2+, control (intact) neurons), 21.6 ± 8.7 µM; in the data set on NMDA receptors (NMDARs) (read-out: IC50 for ATL inhibition of NMDAR currents, −70 mV, 2 mM Ca2+), 4.9 ± 1 µM; in the data set on NMDA receptors (NMDARs) (read-out: IC50 for ATL inhibition of NMDAR currents, −70 mV, 4 mM Ca2+), 0.72 µM; in the data set on NMDA receptors (NMDARs) (read-out: IC50 for ATL inhibition of NMDAR currents, −100 mV, 0.25 mM Ca2+), 34.2 ± 9.8 µM. Besides, the “[Ca2+] shift giving an e-fold change of IC50 (b value), optimized” value with NMDA receptors (NMDARs) (optimized by fitting all data with IC50(Vm,[Ca2+]) equation) amounted to 690 µM. In the data set with NMDA receptors (NMDARs) (single exponential fit of IC50 vs [Ca2+], −70 mV), the “[Ca2+] shift giving an e-fold change of IC50 (b value)” value turned out to be 630 µM. For the same molecule, the Hill coefficient h in the data set with NMDA receptors (NMDARs) (−70 mV, 0.25 mM Ca2+) stood at 1.4 ± 0.1; in the data set with NMDA receptors (NMDARs) (−70 mV, 0.5 mM Ca2+), 1.5 ± 0.1; in the data set with NMDA receptors (NMDARs) (−70 mV, 1 mM Ca2+), 1.6 ± 0.5; with NMDA receptors (NMDARs) (−70 mV, 2 mM Ca2+) it was 1.2 ± 0.1; in the data set on NMDA receptors (NMDARs) (−70 mV, 4 mM Ca2+), 1.5 ± 0.2. In the data set on NMDA receptors (NMDARs) (−70 mV, 0.25 mM Ca2+, Eq. 3), the “rate constant of binding (kon)” value came out at 1600 ± 90 M⁻¹ s⁻¹. The “rate constant of dissociation (koff)” value in the data set on NMDA receptors (NMDARs) (−70 mV, 0.25 mM Ca2+, Eq. 4) was 0.204 ± 0.005 s⁻¹. Besides, the Kd with NMDA receptors (NMDARs) (−70 mV, 0.25 mM Ca2+, Eq. 5, read-out: apparent equilibrium dissociation constant (Kd = koff/kon)) is 128 ± 7.8 µM. In the data set with NMDARs, the “ATL concentrations required for the NMDAR channel block” value was 15 to 60 µM. Moreover, the “therapeutic window for ATL concentrations in the blood plasma” value in data set [1] (blood plasma) is 0.3 to 1 µM. Also, the “ATL concentration in brain tissue” value in data set [1] (brain tissue) is on record as at most 10 µM.

With `CC12CC3CC(C)(C1)CC(N)(C3)C2` [memantine], in the data set with NMDARs (by different estimates), the “δ, fraction of the membrane electric field” value was 0.65–0.91. Besides, the “effect on recovery from desensitization” value with GluN1/GluN2A NMDARs is listed as “slows the rate of recovery from desensitization of GluN1/GluN2A NMDARs”.

For the molecule `NC12CC3CC(CC(C3)C1)C2` [amantadine], the “δ, fraction of the membrane electric field” value with NMDARs was 0.72.

In the case of `Br.Br.NCCCCCNCC12CC3CC(CC(C3)C1)C2` [IEM-1754, N-(tricyclo[3.3.1.13,7]dec-1-ylmethyl)-1,5-pentanediamine dihydrobromide], the “Ca2+ dependence of block of NMDA-activated currents” value in the data set on NMDA receptors (NMDARs) (10 μM IEM-1754, −70 mV, 2 mM vs 0.25 mM Ca2+) is “resistant to a 4-fold increase of [Ca^2+]”.

`CNC1(c2ccccc2Cl)CCCCC1=O` (centres unmarked) [ketamine]: in the data set with NMDARs, the “sensitivity of NMDAR block to external [Ca2+]” value is “no sensitivity to changes in external [Ca^2+]” and the “δ, fraction of the membrane electric field” value is recorded as 0.55.

Values taken from paper PMC6923474 (Scientific Reports, 2019).
